This is an account of results in US20040038369A1, “Airway-specific trypsin-like enzymes and method of using the same” (priority 2000, published 2004).

The test system of test [1] is Muc5AC mRNA in NCI-H292 cells. The test is described as follows: Muc5AC mRNA expression in NCI-H292 by real time PCR. Format: cell-based, human. The settings on record: HAST 300 mU/mL, 24 hours. How it is done: NCI-H292 cells (purchased from ATCC) were suspended in 10% FCS-containing RPMI-1640 (produced by Gibco Corp.), sowed on a 96 well plate (produced by Falcon Corp.) in a density of 6.0×10^4 cells/cm^2, cultured for 72 hours, subjected to the replacement of the culture solution by RPMI-1640 containing 0.1% of BSA, and further cultured for 24 hours.
Before added to the cells, leupeptin in various concentrations was reacted with 300 mU/mL of HAST on ice for 30 minutes, and further heated at 37° C. Then, the culture solution in the wells was wholly exchanged by the culture medium containing the HAST or leupeptin to start the treatment, and the treatment was carried out for 24 hours. HAST (300 mU/mL) thermally treated at 99° C. for 10 minutes as a control, EGF alone (1 ng/mL), and a combination of EGF (5 ng/mL) with leupeptin (10^−5 M) were also similarly treated. The number of the samples was 3.
An EGF treatment sample was continuously diluted five times to prepare a standard. […]
(§1) For both the Muc5AC and the β-actin, the expression quantities of the samples were relatively compared from the obtained Ct values and the standard straight line. […]
as §1
On the technique in general: In qPCR the cycle at which signal appears reflects the starting amount.

The subject of test [2] is normal human airway epithelial cells. In words: Calcium influx in normal human airway epithelial cells. Format: cell-based. The following applies: AST 2 units/mL; trypsin 10 to 100 units/mL; SFLLRNamide 100 μM. How it is done:
The Ca^2+ influx due to the AST was examined with confluent normal epithelial cells adhered to three 10 cm dishes (purchased from BioWhittaker Corp.). The cells were peeled with a 10 mM EDTA/HEPES-Tyrode buffer solution for 10 minutes, recovered by a centrifugal treatment at 800 rpm at room temperature for 5 minutes, and then resuspended in 5 mL of HEPES-Tyrode buffer solution-Ca^2+ (−) pH 7.4. The recovered cells (about 1.2×10^6 cells) were suspended in 5 mL of HEPES-Tyrode buffer solution (1 μg/mL, containing Fura2-AM) to load the Fura2-AM to the cells at 37° C. for one hour. The cells were recovered by a centrifugal treatment at 800 rpm at room temperature for 5 minutes, twice washed with HEPES-Tyrode buffer solution-Ca^2+ (−) pH 7.4, and then resuspended in […] of HEPES-Tyrode buffer solution-Ca^2+ (−) pH 7.4. The cell suspension was mixed with 5 μL of 1M CaCl2 to give a final concentration of 1 mM CaCl2, and then incubated in a shaded state at room temperature for 5 minutes. The prepared Fura2-AM-loaded infected cells were dispensed into a 96 well plate in a volume of 100 μL/well, further subjected to the dispensation of HEPES-Tyrode buffer solution-Ca^2+ (+) pH 7.4 in a volume of 80 μL/well, and then assayed with Fluorescence Drug Screening System (Hamamatsu Photonics Co.). […]

For “HAST: human airway-specific trypsin-like enzyme; propeptide moiety bound to trypsin-like protein moiety via a disulfide bond”, the Muc5AC gene expression entry in test [1] is recorded as “promoted”. In addition, in test [2], the “Ca2+ influx” value was “observed”.
